Measurements taken from patent US4826850A, “Quinoline base compound, process for the preparation thereof and anticancer agent containing the same as pharmacologically efficacious component” (Mect Corporation, priority 1986, dated 1989).
≈ marks a conversion by molar mass, not a printed value.

How the values were obtained:
P-388 = experiment: Effect in prolonging life of P-388 mice; type: in vivo, mouse; conditions: CDF1 mice, P-388 i.p., control 100
Description: Test Example 2: Effect in Prolonging the Life of Mouse with Cancer, and Acute Toxicity of Drugs
Using P-388 mice with cancer, the pharmacological efficacy of the aforementioned compounds was evaluated by comparing with a control to which no such compound had been added.
Animal Used: CDF1 Mice (6 mice/group)
Number of Incubated Cells: 10^6 cells/mouse
Days at which Drugs Were Administered: Days 1 and 5, or days 1 to 9
Quantities of Drugs Administered: When a drug was administered at days 1 and 5, the maximum dosed quantity was set at LD50 or 400 mg/kg/day; and when a drug was administered at days 1 to 9, the maximum dosed quantity was set at 1/2×LD50 or 200 mg/kg/day. The experiment was conducted with groups of mice being administered the respective drugs at 3 dose levels incuding the maximum level, 1/2 of the maximum level and 1/4 of the maximum level.
When the T/C %, i.e. the ratio of the survival time (days) of a treated group (administered with a certain drug) to the survival time of a control group (administered with no drug), was 120% or more for a synthesized substance and 130% or more for a natural substance, the drug was appraised as effective (P). The survival time of the group administered with no drug is normally about 10 days (median survival time). In the following Table, an indication of "T/C 0%" means that not less than three mice were dead due to toxicity within 5 days.

KB cells = experiment: Effect in inhibiting growth of KB-cells (in vitro); type: cell-based; conditions: Homo sapiens, 72 h, drug added day 1, cells counted day 4, inhibition rate 50%, read-out: Concentration giving 50% growth inhibition (ED50; Inhibition Rate 50%)
Description: (1) Effect in Inhibiting Growth of KB-Cells
The KB-cell, one of the cancer-causing tumor cells, was incubated in an in vitro floating incubation system, and the pharmacological effects of the Compounds (4) and (5) were compared with a control to which the compounds had not been added.
KB Cells (derived from a human epidermoid carcinoma of the mouth).
Eagles minimal essential medium (MEM)-10% calf serum.
37° C. in a carbon dioxide gas incubator (5% CO2).
Day 0: The KB cells were diluted to 2×10^4 /ml medium. 3 ml of the thus diluted KB cell suspension was incubated on a 60 mm plastic dish, at 2 dishes per dose level.
Day 1: Each drug was added into each dish so that the drug content in each dish was adjusted, respectively, to 100, 30, 10, 3 and 1 μg/ml.
Day 4: The cells were stripped from the surface of each dish, and the number of cells was counted using a Kohlter's counter.
A substance or drug having an ED50 value of not more than 4 μg/ml for a synthesized product was appraised as an effective substance. Meanwhile, in evaluating the effect of inhibiting growth of KB-cells, the number of surviving cells was counted by a Kohlter's counter, and the counted number was compared to that of the control (without the addition of the Compound (1)) to find the concentration of the drug for inhibiting the growth by 50%, the thus found concentration being estimated as the ED50 value.

[1] = acridine derivatives, literature; cited from earlier work

COc1cc(NS(C)(=O)=O)ccc1Nc1c2ccccc2nc2c1oc1ccccc12 [Compound 4, N-(4-((benzofuro(3,2-b)quinoline-11yl)amino)-3-methoxyphenyl)methane sulfoneamide]
Life Prolonging Rate (T/C) (P-388; Dosage 12.5 mg/kg): 180% | Life Prolonging Rate (T/C) (P-388; Dosage 25 mg/kg): 195% | Life Prolonging Rate (T/C) (P-388; Dosage 50 mg/kg): 200% | IC50 (KB cells): 0.3 µg/mL (≈ 0.692 µM)

COc1cc(NS(C)(=O)=O)ccc1Nc1c2ccccc2nc2c1sc1ccccc12 [Compound 5, N-(4-((benzothieno(3,2-b)quinoline-11-yl)amino)-3-methoxyphenyl)methanesulfoneamide]
Life Prolonging Rate (T/C) (P-388; Dosage 12.5 mg/kg): 138% | Life Prolonging Rate (T/C) (P-388; Dosage 25 mg/kg): 170% | Life Prolonging Rate (T/C) (P-388; Dosage 50 mg/kg): 170% | IC50 (KB cells): 0.3 µg/mL (≈ 0.667 µM)

COc1cc(NS(C)(=O)=O)ccc1Nc1c2c(nc3ccccc13)-c1ccccc1C2 [Compound 6]
Life Prolonging Rate (T/C) (P-388; Dosage 12.5 mg/kg): 166% | Life Prolonging Rate (T/C) (P-388; Dosage 50 mg/kg): 217% | Life Prolonging Rate (T/C) (P-388; Dosage 100 mg/kg): 240% | Life Prolonging Rate (T/C) (P-388; Dosage 200 mg/kg): 60% | Life Prolonging Rate (T/C) (P-388; Dosage 400 mg/kg, T/C 0% means not less than three mice dead due to toxicity within 5 days): 0% | IC50 (KB cells): < 0.3 µg/mL

COc1cc(NS(C)(=O)=O)ccc1Nc1c2ccccc2nc2ccccc12 [amsacrine, N-(4-(9-acridinylamino)-3-methoxyphenyl)-methanesulfoneamide]
Anticancer effect [1]: most effective derivative

COc1cc(NS(C)(=O)=O)ccc1Nc1c2c(nc3ccccc13)CCCC2 [tetrahydroamsacrine]
Anticancer effect [1]: reduced anticancer effect
